Measured values published in US20240114939A1, “HYDROXY- AND METHOXY-SUBSTITUTED FLAVONES AND THEIR USE” (Firmenich SA, priority 2021, published 2024).

Tests used:
[1] = tested on: human sensory panel; experiment: Human sensory panel, bitter and astringent taste versus reference water solution with 10 ppm mixture of Limonin, Naringin and Nomilin; assay type: in vivo; conditions: 20 trained panelists, scale −5 (strong masking) to 5 (strong enhancing); for Astringency: 0 = reference water solution; for Bitterness: 0 = reference water solution with 10 ppm mixture of Limonin, Naringin and Nomilin
Description: (§1) Certain HMF compounds were tasted by a human sensory panel to assess their ability to reduce bitterness, reduce astringency, and enhance sweetness. The panel consisted of 20 trained panelists evaluating the samples at 1 ppm, 5 ppm, or 10 ppm for taste properties (sweet, bitter, or astringent) on a scale of −5 to 5 (−5 denoted strong masking effect and 5 denoted strong enhancing effect, 0 being the intensity of a reference water solution containing 4% sucrose or 10 ppm mixture of Limonin, Naringin and Nomilin) The results are set forth in Table 2. The composition numberings (“Cpn”) are set forth above in Example 1.

[2] = tested on: human sensory panel; experiment: Human sensory panel, sweet taste versus reference water solution containing 4% sucrose; assay type: in vivo; conditions: 20 trained panelists, scale −5 (strong masking) to 5 (strong enhancing), 0 = reference water solution containing 4% sucrose
Description: as §1

[3] = tested on: panel of 8 experts; experiment: Expert panel, bitter and astringent taste in coffee; assay type: in vivo, human; conditions: 10 ppm, scale −5 (strong masking) to 5 (strong enhancing), 0 = reference application in coffee
Description: A panel consisted in 8 experts evaluating the samples at 10 ppm for taste properties (bitter and astringent) on a scale of −5 to 5 (−5 denoted strong masking effect and 5 denoted strong enhancing effect, 0 being the intensity of a reference application in coffee).

Row | Structure (SMILES) | Astringency ([1]; 10 ppm) | Bitterness ([1]; 10 ppm) | Sweetness ([2]; 10 ppm) | further results
1 | COc1cc(-c2cc(=O)c3c(OC)c(OC)c(OC)c(OC)c3o2)ccc1O [Cpd 103, 4′-hydroxy-5,6,7,8,3′-pentamethoxyflavone] | −0.67 | −1.17 | 0.17 | 
2 | COc1cc(-c2cc(=O)c3c(OC)c(OC)c(OC)cc3o2)ccc1O [Cpd 101, 4′-hydroxy-5,6,7,3′-tetramethoxyflavone] | −0.92 | −0.92 | 0.58 | 
3 | COc1ccc(-c2cc(=O)c3c(OC)c(OC)c(OC)c(OC)c3o2)cc1O [Cpd 109, 3′-hydroxy-5,6,7,8,4′-pentamethoxyflavone] | −1.80 | −3.51 | 0.03 | Astringency [3]: 0.60; Bitterness [3]: −1.80
4 | COc1ccc(-c2cc(=O)c3c(OC)c(OC)c(OC)cc3o2)cc1O [Cpd 107, 3′-hydroxy-5,6,7,4′-tetramethoxyflavone] |  |  |  | Astringency ([1]; 1 ppm): 0.00; Bitterness ([1]; 1 ppm): 0.08; Sweetness ([2]; 1 ppm): 0.50
5 | COc1cc2oc(-c3ccc(O)cc3)cc(=O)c2c(OC)c1OC [Cpd 104, 4′-Hydroxy-5,6,7-trimethoxyflavone] | −0.33 | −1.00 | 0.08 | 
6 | COc1c(OC)c(OC)c2c(=O)cc(-c3ccc(O)cc3)oc2c1OC [Cpd 106, 4′-hydroxy-5,6,7,8-tetramethoxyflavone] |  |  |  | Astringency ([1]; 5 ppm): −0.30; Bitterness ([1]; 5 ppm): −2.00; Sweetness ([2]; 5 ppm): 0.25
